# From US20210353579A1, “HIGH PENETRATION COMPOSITIONS AND USES THEREOF” (Techfields Pharma Co., Ltd., priority 2006, published 2021)
# Like-named read-outs stand apart in the source and are kept apart here.
# Key:
# Chinese white rabbits [1] = assay: Wound healing, scar area; assay type: in vivo, rabbit; settings: 5% aqueous solution applied to the nearby area of wounds, vs control rabbits
# From the text: 25 Chinese white rabbits were divided into 5 groups and hairs on the back of rabbits were removed (5×5 cm^2).
# rats = assay: Antipyretic activity, E. coli suspension as pyrogen; assay type: in vivo; settings: in °C (unit assumed)
# Description: Rats are administered with sterilized E. coli suspension as a pyrogen. Each group of rats are administered with a prodrug compounds or parent compounds at a dosage specified below. The prodrug compounds are administered either orally or transdermally. The parent compounds are administered orally.
# mice = assay: Analgesic activity, acetic acid writhing; assay type: in vivo
# Description: The prodrug compounds are administered either transdermally or orally. The parent compounds are administered orally. The number of writhing that occurred when mice are administered the acetic acid solution are counted, and the rate of inhibition based on the control group which was not pretreated with any test compounds is calculated. […] The A group is the control group.
# human skin tissue [2] = assay: In vitro penetration rate through human skin, modified Franz cells; settings: Franz cell; for In vitro penetration rate (apparent flux), prodrug compounds: 20% solution in 0.2 M phosphate buffer pH 7.4, human skin
# [3] = Plasma levels after transdermal administration to hairless mice; assay type: in vivo
# Description: Tested compounds (20% solution or suspension in 1 mL isopropanol) are administered transdermally to the skin of intact hairless mice. The plasma levels of the parent compounds are determined by HPLC.
# [4] = Solubility in water / aqueous solubility of HPPs and parent drugs
# Chinese white rabbits [5] = assay: Malassezia-induced lesions similar to psoriasis; assay type: in vivo, rabbit; settings: 5% aqueous solution twice per day, 10 days after application
# From the text: Heavy suspensions of Malassezia [Rosenberg, E. W., et al., Mycopathologia, 72, 147-154 (1980)] were applied to the shaved skin on the backs of the Chinese white rabbits (n=4×6) twice (at 7 am and 7 pm) per day for 2 weeks, lesions similar to psoriasis resulted.
# human skin tissue [6] = settings: pH 7.4
# [7] = 100 mg/kg transdermally, 60 minutes before acetic acid
# [8] = transdermal, 20% in 1 mL isopropanol, hairless mice
# [9] = 100 mg/kg transdermally, 30 min before acetic acid
# [10] = 10 mg/kg orally, 30 min before acetic acid
# [11] = 10 mg/kg transdermally, 30 min before acetic acid
# [12] = 20 mg/kg orally, 30 min before acetic acid
# [13] = 20 mg/kg transdermally, 30 min before acetic acid
# 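Wherever LD50 of HPP is given: acute toxicity in rats expressed as LD50, determined for both prodrugs and their parent compounds.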
compound,measurement,setting,value
CC(C)Cc1ccc(C(C)C(=O)OCC2CCCNC2)cc1.Cl (stereo not drawn) [3-piperidinemethyl 2-(ρ-isobutylphenyl) propionate.HCl],average scar area,Chinese white rabbits [1],only a third of that of the control rabbits
"CC(C(=O)O)c1cccc(C(=O)c2ccccc2)c1 (stereo not drawn) [Ketoprofen, 2-(3-benzoylphenyl) propionic acid, reference compound]","body temperature, t = 0 min",rats; 50 mg/kg orally,37.25 ± 0.06
same,"body temperature, t = 90 min",rats; 50 mg/kg orally,36.81 ± 0.05
same,"body temperature, t = 180 min",rats; 50 mg/kg orally,36.82 ± 0.08
same,"body temperature, t = 270 min",rats; 50 mg/kg orally,36.78 ± 0.07
same,No. of Writhing,"mice; 50 mg/kg orally, 30 min before acetic acid",18.1
same,inhibition at 50 mg/kg,"mice; Mus musculus, po, 50 mg/kg orally, 30 min before acetic acid, read-out: % (rate of writhing inhibition)",48%
same,"In vitro penetration rate (apparent flux), parent compounds","human skin tissue [2]; 20% suspension in 0.2 M phosphate buffer pH 7.4, human skin, detection limit 1",<1 μg/cm^2/h
same,"t, time to peak plasma level after parent compound",[3]; parent compound administered (time when taken orally),1 to 2 h
same,Peak plasma concentration after parent compound,"[3]; parent compound administered, hairless mice",1 mg/L
"CCc1cccc2c3c([nH]c12)C(CC)(CC(=O)OCCN(CC)CC)OCC3.Cl (stereo not drawn) [diethylaminoethyl 1,8-diethyl-1,3,4,9-tetrahydropyrano-[3,4-b]indole-1-acetate.HCl]",average scar area,Chinese white rabbits [1],only a third of that of the control rabbits
CCN(CC)CCOC(=O)COC(=O)Cc1c(C)n(C(=O)c2ccc(Cl)cc2)c2ccc(OC)cc12.Cl [diethylaminoethyl 1-(4-chlorobenzoyl-5-methoxy-2-methyl-1H-indole-3-acetoxyacetate.HCl],average scar area,Chinese white rabbits [1],only a third of that of the control rabbits
CCN(CC)CCOC(=O)Cc1ccc(C(=O)c2ccc(C)cc2)n1C.Cl [diethylaminoethyl 1-methyl-5-(4-methylbenzoyl)-1H-pyrrole-2-acetate.HCl],average scar area,Chinese white rabbits [1],only a third of that of the control rabbits
CC(=O)O.CCN(CC)CCOC(=O)c1ccccc1Nc1cccc(C(F)(F)F)c1 [diethylaminoethyl 2-[[(3-(trifluoromethyl)phenyl)amino]benzoate.AcOH],"body temperature, t = 0 min",rats; 100 mg/kg transdermally,37.27 ± 0.06
same,"body temperature, t = 90 min",rats; 100 mg/kg transdermally,36.76 ± 0.05
same,"body temperature, t = 180 min",rats; 100 mg/kg transdermally,36.65 ± 0.08
same,"body temperature, t = 270 min",rats; 100 mg/kg transdermally,36.49 ± 0.07
same,Solubility of HPP,[4]; medium not given,>400 mg/mL
same,LD50 of HPP,rat; rats,800 mg/kg
same,% (rate of writhing inhibition),mice; [7],54%
same,No. of Writhing,mice; [7],16.1
same,"In vitro penetration rate (apparent flux), prodrug compounds",human skin tissue [2],2200 μg/cm^2/h
same,Peak plasma concentration of parent compound after prodrug compound,[3]; [8],20 mg/L
same,"t, time to peak plasma level of parent compound after prodrug compound",[3]; [8],50 min
CC(=O)O.CCN(CC)CCOC(=O)Cc1cccc(C(=O)c2ccc(Br)cc2)c1N [diethylaminoethyl 2-amino-3-(4-bromo-benzoyl)benzeneacetate.AcOH],"body temperature, t = 0 min",rats; 100 mg/kg transdermally,37.25 ± 0.06
same,"body temperature, t = 90 min",rats; 100 mg/kg transdermally,36.71 ± 0.05
same,"body temperature, t = 180 min",rats; 100 mg/kg transdermally,36.65 ± 0.08
same,"body temperature, t = 270 min",rats; 100 mg/kg transdermally,36.64 ± 0.07
same,lesions similar to psoriasis,Chinese white rabbits [5],the lesions were resolved
same,LD50 of HPP,rat; rats,1600 mg/kg
same,% (rate of writhing inhibition),mice; [9],62%
same,No. of Writhing,mice; [9],13.2
same,Peak plasma concentration of parent compound after prodrug compound,"[3]; mouse, in vivo",20 mg/L
same,"t, time to peak plasma level of parent compound after prodrug compound","[3]; mouse, in vivo",50 min
same,"In vitro penetration rate (apparent flux), prodrug compounds",human skin tissue [6],1100 μg/cm^2/h
CCN(CC)CCOC(=O)Cc1cccc(C(=O)c2ccc(Br)cc2)c1N.Cl [diethylaminoethyl 2-amino-3-(4-bromo-benzoyl)benzeneacetate.HCl],average scar area,Chinese white rabbits [1],only a third of that of the control rabbits
"CC(=O)O.CCN(CC)CCOC(=O)Cc1ccccc1Nc1c(Cl)cccc1Cl [diethylaminoethyl 2[(2,6-dichlorophenyl)amino]benzene acetate.AcOH]","body temperature, t = 0 min",rats; 10 mg/kg orally,37.52 ± 0.07
same,"body temperature, t = 90 min",rats; 10 mg/kg orally,36.50 ± 0.06
same,"body temperature, t = 180 min",rats; 10 mg/kg orally,36.60 ± 0.05
same,"body temperature, t = 270 min",rats; 10 mg/kg orally,36.55 ± 0.08
same,"body temperature, t = 0 min",rats; 10 mg/kg transdermally,37.58 ± 0.06
same,"body temperature, t = 90 min",rats; 10 mg/kg transdermally,36.30 ± 0.06
same,"body temperature, t = 180 min",rats; 10 mg/kg transdermally,36.35 ± 0.08
same,"body temperature, t = 270 min",rats; 10 mg/kg transdermally,36.31 ± 0.07
same,"body temperature, t = 0 min",rats; 20 mg/kg orally,37.54 ± 0.08
same,"body temperature, t = 90 min",rats; 20 mg/kg orally,36.30 ± 0.05
same,"body temperature, t = 180 min",rats; 20 mg/kg orally,36.35 ± 0.07
same,"body temperature, t = 270 min",rats; 20 mg/kg orally,36.38 ± 0.08
same,"body temperature, t = 0 min",rats; 20 mg/kg transdermally,37.59 ± 0.05
same,"body temperature, t = 90 min",rats; 20 mg/kg transdermally,36.25 ± 0.05
same,"body temperature, t = 180 min",rats; 20 mg/kg transdermally,36.30 ± 0.07
same,"body temperature, t = 270 min",rats; 20 mg/kg transdermally,36.20 ± 0.05
same,Solubility of HPP,[4]; in water,>300 mg/mL
same,Solubility in water,[4]; product as prepared in Example 1,400 mg/mL
same,LD50 of HPP,"rat; rat, in vivo",800 mg/kg
same,% (rate of writhing inhibition),mice; [10],64.6%
same,No. of Writhing,mice; [10],12.1
same,% (rate of writhing inhibition),mice; [11],69.9%
same,No. of Writhing,mice; [11],10.3
same,% (rate of writhing inhibition),mice; [12],73.1%
same,No. of Writhing,mice; [12],9.2
same,% (rate of writhing inhibition),mice; [13],74.3%
same,No. of Writhing,mice; [13],8.8
same,"In vitro penetration rate (apparent flux), prodrug compounds",human skin tissue [2],5000 μg/cm^2/h
same,Peak plasma concentration of parent compound after prodrug compound,[3]; [8],2100 mg/L
same,"t, time to peak plasma level of parent compound after prodrug compound",[3]; [8],40 min
CCN(CC)CCOC(=O)Cc1cn(-c2ccccc2)nc1-c1ccc(Cl)cc1.Cl [diethylaminoethyl 3-(4-chlorophenyl)-1-phenyl-1H-pyrazole-4-acetate.HCl],average scar area,Chinese white rabbits [1],only a third of that of the control rabbits
C=CCOc1ccc(CC(=O)OCCN(CC)CC)cc1Cl.CC(=O)O [diethylaminoethyl 3-chloro-4-(2-propenyloxy)benzeneacetate.AcOH],"body temperature, t = 0 min",rats; 100 mg/kg transdermally,37.23 ± 0.07
same,"body temperature, t = 90 min",rats; 100 mg/kg transdermally,36.80 ± 0.06
same,"body temperature, t = 180 min",rats; 100 mg/kg transdermally,36.70 ± 0.05
same,"body temperature, t = 270 min",rats; 100 mg/kg transdermally,36.67 ± 0.08
same,lesions similar to psoriasis,Chinese white rabbits [5],the lesions were resolved
same,LD50 of HPP,rat; rats,3000 mg/kg
same,% (rate of writhing inhibition),mice; [9],55%
same,No. of Writhing,mice; [9],15.7
same,Peak plasma concentration of parent compound after prodrug compound,"[3]; mouse, in vivo",20 mg/L
same,"t, time to peak plasma level of parent compound after prodrug compound","[3]; mouse, in vivo",50 min
same,"In vitro penetration rate (apparent flux), prodrug compounds",human skin tissue [6],1000 μg/cm^2/h
C=CCOc1ccc(CC(=O)OCCN(CC)CC)cc1Cl.Cl [diethylaminoethyl 3-chloro-4-(2-propenyloxy)benzeneacetate.HCl],average scar area,Chinese white rabbits [1],only a third of that of the control rabbits
CC(=O)O.CCN(CC)CCOC(=O)Cc1sc(-c2ccccc2)nc1-c1ccc(Cl)cc1 [diethylaminoethyl 4-(4-chlorophenyl)-2-phenyl-5-thiazoleacetate.AcOH],"body temperature, t = 0 min",rats; 100 mg/kg transdermally,37.23 ± 0.06
same,"body temperature, t = 90 min",rats; 100 mg/kg transdermally,36.81 ± 0.05
same,"body temperature, t = 180 min",rats; 100 mg/kg transdermally,36.75 ± 0.08
same,"body temperature, t = 270 min",rats; 100 mg/kg transdermally,36.71 ± 0.07
same,lesions similar to psoriasis,Chinese white rabbits [5],the lesions were resolved
same,LD50 of HPP,rat; rats,1200 mg/kg
same,% (rate of writhing inhibition),mice; [9],54%
same,No. of Writhing,mice; [9],16.1
same,Peak plasma concentration of parent compound after prodrug compound,"[3]; mouse, in vivo",20 mg/L
same,"t, time to peak plasma level of parent compound after prodrug compound","[3]; mouse, in vivo",50 min
same,"In vitro penetration rate (apparent flux), prodrug compounds",human skin tissue [6],1300 μg/cm^2/h
CCN(CC)CCOC(=O)Cc1sc(-c2ccccc2)nc1-c1ccc(Cl)cc1.Cl [diethylaminoethyl 4-(4-chlorophenyl)-2-phenyl-5-thiazoleacetate.HCl],average scar area,Chinese white rabbits [1],only a third of that of the control rabbits
"CCN(CC)CCOC(=O)Cc1cc(C)c(C(=O)c2ccc(Cl)cc2)n1C.Cl [diethylaminoethyl 5-(4-Chlorobenzoyl)-1,4-dimethyl-1H-pyrrole-2-acetate.HCl]",average scar area,Chinese white rabbits [1],only a third of that of the control rabbits
CC(=O)O.CCN(CC)CCOC(=O)C(C)c1c(C)n(C(=O)c2ccc(Cl)cc2)c2ccc(OC)cc12 (stereo not drawn) [diethylaminoethyl α-methyl-(p-chlorobenzoyl)-5-methoxy-2-methylindole 3-acetate.AcOH],"body temperature, t = 0 min",rats; 100 mg/kg transdermally,37.35 ± 0.06
same,"body temperature, t = 90 min",rats; 100 mg/kg transdermally,36.71 ± 0.05
same,"body temperature, t = 180 min",rats; 100 mg/kg transdermally,36.60 ± 0.08
same,"body temperature, t = 270 min",rats; 100 mg/kg transdermally,36.59 ± 0.07
same,Solubility of HPP,[4]; medium not given,>450 mg/mL
same,% (rate of writhing inhibition),mice; [9],61%
same,No. of Writhing,mice; [9],13.8
same,"In vitro penetration rate (apparent flux), prodrug compounds",human skin tissue [2],4000 μg/cm^2/h
same,Peak plasma concentration of parent compound after prodrug compound,[3]; [8],2000 mg/L
same,"t, time to peak plasma level of parent compound after prodrug compound",[3]; [8],50 min
